# Where two headings read alike, the source gives them in different places.
# Assays:
# Format in all cases: cell-based
# [1] = system: PCresistant S. aureus; experiment: MIC by two-fold serial agar dilution in Mueller-Hinton agar, Gp-Ib; details: Staphylococcus aureus, read-out: Geometric Mean of MIC
# Protocol: (§1) In the primary evaluation of the compounds of this invention, the Minimum Inhibitory Concentrations (MIC's) of the compounds were determined by the two-fold serial agar dilution method in Mueller-Hinton agar against 32 strains of test organisms in six groups.
# GpIb: PCresistant S. aureus
# [2] = system: Penicillin(PC)sensitive S. aureus; experiment: MIC by two-fold serial agar dilution in Mueller-Hinton agar, Gp-Ia; details: Staphylococcus aureus
# Protocol: as §1
# Gp-Ia: Penicillin(PC)sensitive S. aureus
# [3] = system: M. morganii (1), E. cloacae (2) and S. marcescens (2); experiment: MIC by two-fold serial agar dilution in Mueller-Hinton agar, Gn-II; details: read-out: Geometric Mean of MIC
# Protocol: as §1
# GnII: M. morganii (1), E. cloacae (2) and S. marcescens (2)
# [4] = system: CETresistant E. coli (3) and K. pneumoniae (2); experiment: MIC by two-fold serial agar dilution in Mueller-Hinton agar, Gn-Ib; details: Escherichia coli, read-out: Geometric Mean of MIC
# Protocol: as §1
# GnIb: CETresistant E. coli (3) and K. pneumoniae (2)
# [5] = system: Cephalothin(CET)sensitive E. coli (2 strains), K. pneumoniae (1) and P. mirabilis (2); experiment: MIC by two-fold serial agar dilution in Mueller-Hinton agar, Gn-Ia; details: read-out: Geometric Mean of MIC
# Protocol: as §1
# GnIa: Cephalothin(CET)sensitive E. coli (2 strains), K. pneumoniae (1) an […]
# [6] = system: P. aeruginosa; experiment: MIC by two-fold serial agar dilution in Mueller-Hinton agar, Gn-III; details: Pseudomonas aeruginosa, read-out: Geometric Mean of MIC
# Protocol: as §1
# [7] = Gp-Ib, 5 strains, PC-resistant S. aureus
# [8] = Gp-Ia, 5 strains, PC-sensitive S. aureus, read-out: Geometric Mean of MIC
# [9] = Gn-Ia, 5 strains, CET-sensitive
# [10] = Gn-Ib, 5 strains, CET-resistant
# [11] = Gn-III, 7 strains, P. aeruginosa
# [12] = read-out: Geometric Mean of MIC, Gp-Ia, 5 strains, PC-sensitive S. aureus
Structure (SMILES),"MIC [1, 7] [µg/mL]","MIC [2, 8] [µg/mL]",MIC [3] [µg/mL],MIC [4] [µg/mL],"MIC [5, 9] [µg/mL]",MIC [6] [µg/mL],"MIC ([3]; Gn-II, 5 strains) [µg/mL]","MIC [4, 10] [µg/mL]",MIC [5] [µg/mL],"MIC [6, 11] [µg/mL]","MIC [2, 12] [µg/mL]",MIC [1] [µg/mL]
"CO/N=C(\C(=O)NC1C(=O)N2C(C(=O)[O-])=C(C[N+]34CCN(CC3)CC4)CS[C@H]12)c1csc(N)n1 (stereo partly drawn) [Example 4, 7-[(Z)-2-(2-Aminothiazol-4-yl)-2-methoxyiminoacetamido]-3-(1,4-diazabicyclo[2,2,2]octan-1-io)methyl-3-cephem-4-carboxylate]",5.8,2.9,0.8,0.16,0.07,3.6,–,–,–,–,–,–
"CO/N=C(\C(=O)NC1C(=O)N2C(C(=O)[O-])=C(C[N+]3(C)CCN(C)CC3)CS[C@H]12)c1csc(N)n1 (stereo partly drawn) [Example 5, 7-[(Z)-2-(2-Aminothiazol-4-yl)-2-methoxyiminoacetamido]-3-(1,4-dimethyl-1-piperazinio)methyl-3-cephem-4-carboxylate]",4.7,2.3,–,–,0.057,3.6,0.78,0.12,–,–,–,–
"CO/N=C(\C(=O)NC1C(=O)N2C(C(=O)[O-])=C(C[N+]3(C)CCc4scnc4C3)CS[C@H]12)c1csc(N)n1 (stereo partly drawn) [Example 6, 7-[(Z)-2-(2-Aminothiazol-4-yl)-2-methoxyiminoacetamido]-3-(5-methyl-4,5,6,7-tetrahydro-5-thiazolo[4,5-c]pyridinio)methyl-3-cephem-4-carboxylate]",3.2,0.9,0.4,0.15,–,–,–,–,0.025,4.2,–,–
"CO/N=C(\C(=O)NC1C(=O)N2C(C(=O)[O-])=C(C[N+]3(C)CCCCCC3)CS[C@H]12)c1csc(N)n1 (stereo partly drawn) [Example 7, 7-[(Z)-2-(2-Aminothiazol-4-yl)-2-methoxyiminoacetamido]-3-(1-methylhexahydroazepinio)methyl-3-cephem-4-carboxylate]",3.2,0.9,–,–,0.05,–,0.15,0.13,–,4.2,–,–
"CO/N=C(\C(=O)NC1C(=O)N2C(C(=O)[O-])=C(C[N+]3(C)CCC(O)C3)CS[C@H]12)c1csc(N)n1 (stereo partly drawn) [Example 9, 7-[(Z)-2-(2-Aminothiazol-4-yl)-2-methoxyiminoacetamido]-3-(3-hydroxy-1-methylpyrrolidinio)methyl-3-cephem-4-carboxylate]",3.3,–,0.14,0.14,0.27,–,–,–,–,2.9,1.3,–
"CC[N+]1(CC2=C(C(=O)[O-])N3C(=O)C(NC(=O)/C(=N\OC)c4csc(N)n4)[C@H]3SC2)CCCC1 (stereo partly drawn) [Example 10, 7-[(Z)-2-(2-Aminothiazol-4-yl)-2-methoxyiminoacetamido]-3-(1-ethylpyrrolidinio)methyl-3-cephem-4-carboxylate]",–,–,–,–,–,–,0.13,0.13,0.037,3.1,1,2
"CO/N=C(\C(=O)NC1C(=O)N2C(C(=O)[O-])=C(C[N+]3(C)CC=CC3)CS[C@H]12)c1csc(N)n1 (stereo partly drawn) [Example 11, 7-[(Z)-2-(2-Aminothiazol-4-yl)-2-methoxyiminoacetamido]-3-(1-methyl-3-pyrrolinio)methyl-3-cephem-4-carboxylate]",2.1,0.78,–,0.17,0.019,2.5,0.15,–,–,–,–,–
"CO/N=C(\C(=O)NC1C(=O)N2C(C(=O)[O-])=C(C[N+]3(C)Cc4ccccc4C3)CS[C@H]12)c1csc(N)n1 (stereo partly drawn) [Example 14, 7-[(Z)-2-(2-Aminothiazol-4-yl)-2-methoxyiminoacetamido]-3-[(2-methyl-2-benzo[c]pyrrolinio)methyl]-3-cephem-4-carboxylate]",1.7,0.51,–,–,0.042,–,0.13,0.13,–,7.7,–,–
"CO/N=C(\C(=O)NC1C(=O)N2C(C(=O)[O-])=C(C[N+]3(C)CCc4nc(N)sc4C3)CSC12)c1csc(N)n1 (stereo not drawn) [Example 15, 7-[(Z)-2-(2-Aminothiazol-4-yl)-2-methoxyiminoacetamido]-3-[(2-amino-4,5,7-tetrahydro-6-methyl-6-thiazolo[5,4-c]pyridinio)methyl]-3-cephem-4-carboxylate]",2.8,–,–,0.16,0.034,–,0.18,–,–,4.6,1.1,–
"CO/N=C(\C(=O)NC1C(=O)N2C(C(=O)[O-])=C(C[N+]3(CC(=O)O)CCCC3)CS[C@H]12)c1csc(N)n1 (stereo partly drawn) [Example 16, 7-[(Z)-2-(2-Aminothiazol-4-yl)-2-methoxyiminoacetamido]-3-[1-(carboxymethyl)pyrrolidinio]methyl-3-cephem-4-carboxylate]",17,6.5,0.14,0.23,–,–,–,–,0.02,5.1,–,–
